According to article PMC5681922, “Systemic Responses of Multidrug-Resistant Pseudomonas aeruginosa and Acinetobacter baumannii Following Exposure to the Antimicrobial Peptide Cathelicidin-BF Imply Multiple Intracellular Targets” (Frontiers in Cellular and Infection Microbiology, 2017):

How the values were obtained:
[1] = test system: P. aeruginosa 1409; assay: Minimal inhibitory concentration (given as multiples of MIC); type: cell-based, Pseudomonas aeruginosa; settings: MDR clinical isolate; MIC itself not given, only this multiple
[2] = test system: P. aeruginosa 1409; assay: Membrane permeabilization assay (propidium iodide); type: cell-based, Pseudomonas aeruginosa; settings: 1 h at 25°C in LB, then PI 10 μg/mL 30 min, fluorescence microscope
Description: Then, PI was added to a final concentration of 10 μg/mL. After 30 min of incubation at 25°C, the cells were washed 3 times with PBS and immediately imaged with a fluorescence microscope (Olympus, Japan) (Yu et al., [2015]).
Figure 3 Bacterial plasma membrane permeabilization assay of cathelicidin-BF. Cathelicidin-BF and levofloxacin were incubated with MDR P. aeruginosa in Luria-Bertani medium at final concentrations of 4 × MIC (minimal inhibitory concentration) or ¼ × MIC. After incubation at 25°C for 1 h, bacteria were collected by centrifugation at 3,000 × g for 5 min and resuspended with PBS. The DNA-binding fluorescent dye PI was added to a final concentration of 10 μg/mL. After 30 min incubation at 25°C, the cells were washed 3 times with PBS and immediately imaged using a fluorescence microscope.

[3] = test system: P. aeruginosa 1409; settings: treated vs untreated, iTRAQ
[4] = cathelicidin-BF at 1/2 MIC (4 μg/mL), 37°C, 2 h
[5] = cathelicidin-BF change not categorized as differentially expressed

Structure (SMILES): C[C@H]1COc2c(N3CCN(C)CC3)c(F)cc3c(=O)c(C(=O)O)cn1c23 [levofloxacin, reference compound]
- 4 × MIC [1]: 64 µg/mL
- integrity of bacterial membranes, PI staining at 4 × MIC ([2]; 4 × MIC (cathelicidin-BF 32 μg/mL, levofloxacin 64 μg/mL)): showed red fluorescence
- integrity of bacterial membranes, PI staining at ¼ × MIC ([2]; ¼ × MIC (cathelicidin-BF 2 μg/mL, levofloxacin 4 μg/mL)): no red dyes were detected
- expression of protein Q9HVA1 (acetolactate synthase isozyme III small subunit) [3, 4]: overexpressed
- expression of protein Q9I3S7 (likely decarboxylase) [3, 4]: overexpressed
- expression of protein Q9HTV3 (3-octaprenyl-4-hydroxybenzoate carboxy-lyase) [3, 5]: downregulated
- expression of protein Q9I298 (putative 3-methylglutaconyl-ConA hydratase) [3, 5]: downregulated
- expression of protein Q9I5V3 (multifunctional CCA protein) ([3]; levofloxacin change not categorized as differentially expressed): downregulated
